Assay results reported in US11578369B2, “Method for the in vitro prognosis of individuals having multiple myeloma and method for the treatment thereof” (CENTRE NATIONAL DE LA RECHERCHE SCIENTIFIQUE, priority 2016, dated 2023).
Values joined by “and” are separate entries in the source; they are usually repeats but may differ in a detail not shown here. Equal values may be shown once.

What was measured:
Format in all cases: cell-based, human
HMCLs [1] = assay: Sublethal dose (IC10) of Decitabine on HMCLs
Description: To assess the potential synergistic effect of the inhibition of these two repressive mechanisms, we tested the combination of a sublethal dose of Decitabine (100 nM, IC10) with EPZ-6438 (1 μM) on two EPZ-6438-resistant HMCLs. […] Therefore, DNA hypomethylation can collaborate with EZH2 inhibition to block MM cell growth.

IRF4 = IRF4 protein level in HMCLs by flow cytometry; settings: 1 μM EPZ-6438 4 days, then 2 days with or without 2 μM lenalidomide
Description: (§1) The expression of IKZF1, c-Myc and IRF4 in HMCLs was evaluated by flow cytometry using PE-conjugated anti-IKZFL anti-MYC and anti-IRF4 mAb and isotype matched PE-conjugated mAb. Data are mean values±standard deviation (SD) of three experiments.
(§2) The expression of IKZF1, c-Myc and IRF4 in HMCLs was evaluated by flow cytometry using PE-conjugated anti-IKZF1, anti-MYC and anti-IRF4 mAb and isotype matched PE-conjugated mAb. IKZF1 expression was assessed by immunofluorescence using an anti-IKZF1 primary antibody and an AF555-conjugated secondary antibody and further plotted onto a graph.
(§3) Cells were fixed for 10 min with Cytofix/Cytoperm (BD BIOSCIENCES®) at 4° C.
(§4) IMiDs promote Ikaros and Aiolos transcription factors binding to the E3 ubiquitin ligase cereblon (CRBN) leading to Ikaros and Aiolos ubiquitination and proteasomal degradation. Ikaros and Aiolos degradation are associated with a downregulation of Interferon regulatory factor 4 (IRF4) and MYC playing an essential role in MMC survival.

MYC = MYC protein level in HMCLs by flow cytometry; settings: 1 μM EPZ-6438 4 days, then 2 days with or without 2 μM lenalidomide
Description: as §1, §2, §3, §4

primary MMCs = assay: Sensitivity of patients' primary MMCs to EPZ-6438, 8-day culture, viable MMC count by CD138 flow cytometry; settings: primary MMCs of 14 MM patients, one table row per patient; 1 μM EPZ-6438, 8 days, IL-6; in % (unit assumed)
Description: FIG. 3B: EZ score predicts for sensitivity of HMCLs and primary MMCs to EZH2 inhibitor. EZ score predicts for EPZ-6438 sensitivity of primary myeloma cells of patients. Mononuclear cells from tumor samples of 14 patients with MM were cultured for 8 days in the presence of IL-6 (2 ng/ml) with or without 1 μM EPZ-6438. At day 8 of culture, the count of viable MMCs was determined using CD138 staining by flow cytometry.
Bone marrow samples were collected after patients' written informed consent in accordance with the Declaration of Helsinki and institutional research board approval from Heidelberg and Montpellier University hospital. […] The structural chromosomal aberrations including t(4; 14)(p16.3; q32.3) and t(11; 14)(q13; q32.3), as well as numerical aberrations including 17p13 and 1q21 gain, were assayed by fluorescence in situ hybridization (iFISH). […] As iFISH data are not available for UAMS-TT2 patients, t(4; 14) translocation was evaluated using MMSET spike expression and del17p13 surrogated by TP53 probe set signal. […]
The inventors have determined that a set of 5 genes that are differentially expressed in a cohort of 14 MM individuals is associated with a prognostic value of their responsiveness to the EZH2 inhibitor EPZ-6438, as shown in Table 2 below. […]

HMCLs [2] = assay: Sensitivity of HMCLs with high or low EZ score to EPZ-6438, cell growth assay; settings: 1 μM EPZ-6438, 8 days; P=0.04
Description: FIG. 3A: EZ score predicts for sensitivity of HMCLs and primary MMCs to EZH2 inhibitor. […] Human myeloma cell lines were cultured for 8 days in 96-well flat-bottom microtiter plates in RPMI 1640 medium, 10% fetal calf serum, 2 ng/ml IL-6 culture medium (control) and 1 μM EPZ-6438. Data are mean values±standard deviation (s.d.) of five experiments determined.
HMCLs were cultured for 15 days in RPMI 1640 medium, 10% FCS, and 2 ng/ml IL-6 (control medium) in the presence of EPZ-6438 ([…]®). Cell concentration and viability were assessed using trypan blue dye exclusion test. The number of metabolic-active was also determined using intracellular ATP quantitation. […] Cell growth was evaluated by quantifying intracellular ATP amount with a Cell Titer Glo Luminescent Assay (PROMEGA®, Madison, Wis.) using a Centro LB 960 luminometer (BERTHOLD TECHNOLOGIES®, Bad Wildbad, Germany).
It was then sought to validate whether the EZ-score could predict for the sensitivity of 10 HMCLs to EPZ-6438. Starting from the large cohort of 40 HMCLs, the response of 5 HMCLs with a high EZ score and 5 HMCLs with a low EZ score to EPZ-6438 EZH2 inhibitor was analyzed.

[3] = tested on: LP1 and XG19 lenalidomide sensitive cell lines; assay: Lenalidomide sensitivity of HMCLs after EPZ-6438 pretreatment, cell growth assay; settings: 4 days 1 uM EPZ-6438 prior to lenalidomide, P<0.05
Description: HMCLs were cultured for 15 days in RPMI 1640 medium, 10% FCS, and 2 ng/ml IL-6 (control medium) in the presence of EPZ-6438 ([…] ®). Cell concentration and viability were assessed using trypan blue dye exclusion test. The number of metabolic-active was also determined using intracellular ATP quantitation.

IKZF1 = IKZF1 protein level in HMCLs by flow cytometry; settings: 1 μM EPZ-6438 4 days, then 2 days with or without 2 μM lenalidomide
Description: as §1, §2, §3, §4

SMILES	IC10 (HMCLs [1]) [nM]	IRF4 protein level inhibition (IRF4) [%]	MYC protein level inhibition (MYC) [%]	Response (primary MMCs)	median higher EPZ-6438 sensitivity, 5 HMCLs with highest EZ score compared to 5 HMCLs with low EZ-score (HMCLs [2]) [fold]	sensitization of myeloma cell lines to lenalidomide treatment [3]	IKZF1 protein level inhibition (IKZF1) [%]
Nc1ncn([C@H]2C[C@H](O)[C@@H](CO)O2)c(=O)n1 [Decitabine]	100						
Nc1cccc2c1CN(C1CCC(=O)NC1=O)C2=O (stereo not drawn) [lenalidomide]		43	2.2				
CCN(c1cc(-c2ccc(CN3CCOCC3)cc2)cc(C(=O)NCc2c(C)cc(C)[nH]c2=O)c1C)C1CCOCC1 [EPZ-6438, EPZ-6438 (Tazemetostat)]		38.7	6.2	64.15 and 46.39 and 53.41 and 61.33 and 72.61 and 112.5 and 84.96 and 118 and 79.27 and 77.76 and 101.43 and 73.09 and 66.53 and 72.01	20	significantly sensitize	45.2
